From ChEMBL document CHEMBL1201862, “PubChem BioAssay data set” (2004) come the findings set out here.

Experiment in all cases: NCI-60 cell line screen, 48 h
Assay [1] relates to OVCAR-5.
Assay [2] concerns RXF 393.
The test system of assay [3] is HOP-62.
In assay [4] the test system is A498.
Assay [5] has as its system HT-29.
Assay [6] relates to HOP-92.
Assay [7] concerns SW-620.
Assay [8] concerns CCRF-CEM.
Assay [9] relates to EKVX.
Assay [10] has as its system A549.
In assay [11] the test system is NCI/ADR-RES.
The test system of assay [12] is SK-MEL-5.
Assay [13] relates to U-251.
Assay [14] has as its system HCT-15.
Assay [15] has as its system MOLT-4.
The test system of assay [16] is TK-10.
For assay [17], the system named is SNB-19.
Assay [18] has as its system OVCAR-3.
Assay [19] concerns SF-295.
Assay [20] has as its system RPMI-8226.

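Grown in 96-well plates, cells were treated for 48 hours with each compound at five concentrations. Insufficient inhibition: endpoint recorded as highest concentration tested. GI50 is the concentration that inhibits growth by half.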 Calls of active or inactive are those of the source. Rule as the data show it: active = GI50 up to about 1.1 µM and inactive = higher. Some results are limits rather than exact numbers.

`Cn1cnc(/C=C/C#N)c1`: the GI50 in assay [1], in assay [2], in assay [3], in assay [4], in [5] and in assay [6] was > 100 µM (inactive) each time. In addition, the GI50 in [7], in assay [8], in assay [9], in assay [10], in assay [11] and in assay [12] was > 100 µM (inactive) throughout. The GI50 in assay [13] is > 100 µM (inactive); in assay [14] it was more than 100 µM; in assay [15], > 100 µM (inactive); in assay [16], > 100 µM (inactive); in assay [17], > 100 µM (inactive); in assay [18], > 100 µM (inactive). Further, in assay [19], the GI50 was > 100 µM (inactive).
As to `Clc1cc(Cl)cc(C2ON=C(c3ccccc3)N2C23CC4CC(CC(C4)C2)C3)c1` (stereo unspecified), the GI50 in assay [1] was > 10 µM (inactive); in [2], > 10 µM (inactive); in assay [3], > 10 µM (inactive); in assay [4], > 10 µM (inactive); in assay [5], > 10 µM (inactive); in [6] it was 0.643 µM (active). In addition, the GI50 in [7], in assay [8], in assay [9], in assay [20], in assay [10] and in [11] was > 10 µM (inactive) in each case. For the same compound, the GI50 in assay [12] is > 10 µM (inactive); in assay [13], > 10 µM (inactive); in [14], more than 10 µM; in [15], > 10 µM (inactive); in assay [16], > 10 µM (inactive); in [17] it was > 10 µM (inactive). Besides, the GI50 in [18] and in [19] was > 10 µM (inactive) each time.
On to `COc1cc(-c2ccc(/N=N/c3ccc4c(S(=O)(=O)O)cc(S(=O)(=O)O)c(N)c4c3O)c(OC)c2)ccc1/N=N/c1ccc2c(S(=O)(=O)O)cc(S(=O)(=O)O)c(N)c2c1O`, for which the GI50 in [1] was > 91.2 µM (inactive); in [2], > 100 µM (inactive); in assay [3], > 100 µM (inactive); in assay [4], > 100 µM (inactive); in [5], > 100 µM (inactive); in [6], > 100 µM (inactive). Moreover, the GI50 in [7], in [8], in [9], in assay [20], in assay [10] and in [11] was > 100 µM (inactive) each time. Moreover, the GI50 in assay [12] is > 100 µM (inactive); in assay [13], > 100 µM (inactive); in [14] it was more than 100 µM; in assay [15], > 100 µM (inactive); in assay [17] it was > 100 µM (inactive); in [18], > 100 µM (inactive). For the same compound, the GI50 in assay [19] is > 100 µM (inactive).
Regarding `CC(C)(C)c1cc(C(P(=O)(c2ccccc2)c2ccccc2)P(=O)(c2ccccc2)c2ccccc2)cc(C(C)(C)C)c1O`, the GI50 was 2.56 µM (inactive) in assay [1]; 3.19 µM (inactive) in assay [2]; 2.56 µM (inactive) in assay [3]; 2.74 µM (inactive) in assay [4]; 2.08 µM (inactive) in assay [5]; 2.43 µM (inactive) in assay [6]. The GI50 in assay [7] is 3.21 µM (inactive); in assay [8], 2.21 µM (inactive); in assay [9], 2.98 µM (inactive); in assay [20], 3.19 µM (inactive); in [10] it was 2.89 µM (inactive); in assay [11] it was 2.12 µM (inactive). In addition, the GI50 in [12] is 1.54 µM (inactive); in assay [13], 2.77 µM (inactive); in assay [14], 2.96 µM; in [15], 2.88 µM (inactive); in assay [16] it was 4.68 µM (inactive); in assay [17], 3.44 µM (inactive). The GI50 was 2.3 µM (inactive) in assay [18] and 1.92 µM (inactive) in [19].
For the compound `N/C(=N\O)N/N=C\c1c(O)cc(O)cc1O`, the GI50 in [1] is > 100 µM (inactive); in [2] it was > 100 µM (inactive); in [3], > 87.9 µM (inactive); in assay [4] it was > 100 µM (inactive); in [5] it was 93.8 µM (inactive); in assay [6] it was 54.8 µM (inactive). Also, the GI50 in [7] is > 70.3 µM (inactive); in assay [8], 31.8 µM (inactive); in [9], > 35.2 µM (inactive); in assay [20], 15.6 µM (inactive); in assay [10], 45.1 µM (inactive); in assay [11], 79.6 µM (inactive). In addition, the GI50 is 50.6 µM (inactive) in assay [12]; 41.6 µM (inactive) in assay [13]; 63.4 µM in assay [14]; 39.8 µM (inactive) in [15]; 65.9 µM (inactive) in assay [17]; > 65.9 µM (inactive) in [18]. The GI50 in assay [19] was > 46.8 µM (inactive).
For `O=C1c2ccccc2OCC1/C=N/O` (stereo unspecified), the GI50 is > 100 µM (inactive) in assay [1]; 32.4 µM (inactive) in [2]; > 100 µM (inactive) in assay [3]; > 100 µM (inactive) in assay [4]; 62.7 µM (inactive) in [5]; > 55.1 µM (inactive) in assay [6]. For the same compound, the GI50 in [7] was > 100 µM (inactive); in assay [8], > 100 µM (inactive); in assay [9] it was 65.6 µM (inactive); in assay [20], > 100 µM (inactive); in assay [10], > 100 µM (inactive); in assay [11], > 100 µM (inactive). The GI50 in assay [12] is > 85.5 µM (inactive); in assay [13] it was > 100 µM (inactive); in assay [14], 63.7 µM; in [15], > 100 µM (inactive); in assay [18], > 100 µM (inactive); in assay [19], > 100 µM (inactive).
As for `O=C(O)CN(CC(=O)O)C1CCCCC1N(CC(=O)O)CC(=O)NCCN=C=S` (stereo unspecified), the GI50 in assay [1], in [2], in assay [3], in assay [4], in [5] and in assay [6] was > 100 µM (inactive) throughout. In addition, the GI50 in assay [7], in [8], in assay [9], in [20], in assay [10] and in [11] was > 100 µM (inactive) each time. For the same compound, the GI50 in [12] was > 100 µM (inactive); in assay [13], > 100 µM (inactive); in assay [14] it was more than 100 µM; in [15] it was > 100 µM (inactive); in [16], > 100 µM (inactive); in assay [17], > 100 µM (inactive). The GI50 in assay [18] and in assay [19] was > 100 µM (inactive) throughout.
As for `C=CC12CN(C)C3C4COC(CC41)C1(C(=O)Nc4ccccc41)C32` (stereo unspecified), the GI50 was > 200 µM (inactive) in assay [1]; > 179 µM (inactive) in assay [2]; > 147 µM (inactive) in assay [3]; 9.29 µM (inactive) in assay [4]; > 145 µM (inactive) in assay [5]; > 140 µM (inactive) in assay [6]. For the same compound, the GI50 in assay [7] was 174 µM (inactive); in assay [8], 96.6 µM (inactive); in assay [9], > 200 µM (inactive); in [20], > 195 µM (inactive); in [10], 166 µM (inactive); in assay [11], > 165 µM (inactive). In addition, the GI50 in [12] was > 200 µM (inactive); in assay [13], > 156 µM (inactive); in assay [14] it was more than 195 µM; in assay [15], > 200 µM (inactive); in [17] it was > 200 µM (inactive); in assay [18] it was > 200 µM (inactive). Also, in assay [19], the GI50 is > 200 µM (inactive).
With `O=c1c(Cc2ccc(Cc3c(O)oc4ccccc4c3=O)cc2)c(O)oc2ccccc12`, the GI50 in assay [1], in [2], in [3], in assay [4], in assay [5] and in assay [6] was > 100 µM (inactive) in each case. Moreover, the GI50 in assay [7], in assay [8], in assay [9], in assay [10], in [11] and in assay [12] was > 100 µM (inactive) in each case. Also, the GI50 is > 100 µM (inactive) in assay [13]; more than 100 µM in assay [14]; > 100 µM (inactive) in assay [15]; > 100 µM (inactive) in assay [16]; > 100 µM (inactive) in assay [18]; > 100 µM (inactive) in [19].
Take `Cc1[nH]c(=O)[nH]c(=O)c1/C=C/C(=O)NC(CO)C[S+]([O-])Cc1ccccc1` (stereo unspecified): the GI50 in assay [1] is > 300 µM (inactive); in assay [2], > 300 µM (inactive); in assay [3] it was > 300 µM (inactive); in [4] it was > 300 µM (inactive); in assay [5], > 300 µM (inactive); in assay [6], > 190 µM (inactive). The GI50 in [7], in assay [8], in [9], in assay [20], in assay [10] and in assay [11] was > 300 µM (inactive) throughout. Also, the GI50 is > 300 µM (inactive) in assay [12]; > 300 µM (inactive) in [13]; more than 300 µM in assay [14]; > 300 µM (inactive) in assay [15]; > 300 µM (inactive) in assay [17]; > 300 µM (inactive) in assay [18]. For the same compound, the GI50 in assay [19] is > 300 µM (inactive).
